Results on one compound are retold here after patent publication US20050163773A1, “Methods and pharmaceutical compositions for dopaminergic modulation of t-cell adhesion and activity” (priority 2001, published 2005).

The structures appear in SMILES notation. Values joined by “and” are separate entries in the source; they are usually repeats but may differ in a detail not shown here. Equal values may be shown once.

Assay [1] has as its system normal human T-cells. The assay can be described thus: T-cell adhesion assay (adhesion of human T-cells to fibronectin).
Experimental: T-cell adhesion assay: In the majority of the experiments, adhesion of purified normal human T-cells to fibronectin was assayed with radioactively labeled T-cells as follows: normal human T-cells, purified from a fresh blood sample, were labeled with Na2[^51CrO4], washed, and resuspended in adhesion medium (RPMI-1640 supplemented with 2% BSA, 1 mM Ca^++, 1 mM Mg^++, 1% sodium pyruvate, 1% glucose, and 1% HEPES buffer). The cells were then pre-treated (30 min., 37° C.) with DPAT, and added to fibronectin coated (1 μg/well; Sigma Chemicals, St. Louis, Mo.) microtiter flat-bottomed 96 well plates (1×10^5 cells/100 μl/well). The plates were placed in a humidified incubator (37° C., 30 min., 10% CO2), and than washed thoroughly several times with PBS, to remove non-adherent T-cells. The adherent T-cells were lysed with 1% Tween 20 in 1N NaOH, and the radioactivity in the resulting supernatants was determined in a γ-counter. For each experimental group, results were expressed as the mean CPM±SD of bound T-cells from quadruplicate wells. DPAT-treated T-cell adhesion to BSA-(rather than fibronectin) coated wells, and untreated T-cell adhesion to fibronectin coated wells, were the standard negative controls.
Non-radioactive T-cell adhesion assays: Alternatively, T-cell adhesion assays were performed with non-radioactively labeled cells, differing from the above protocol only in the final detection steps which were performed as follows: After the final washing of the adhesion plates and removal of the non adherent cells, the microtiter wells were supplemented with lysis and substrate solution (60 μl/well of: 0.5% Triton X-100 in water mixed with an equal volume of 7.5 mM p-nitrophenol-N-acetyl-β-D-glucosaminide, (Sigma Chemicals, St. Louis, Mo.) in 0.1M citrate buffer pH=5.0). The plates were then incubated (˜18hr) in a CO2-free 37° C. incubator, supplemented with stop solution (90 μl/well of 50 mM glycine, (Sigma Chemicals, St. Louis, Mo.) pH=10.4 containing 5 mM EDTA), and the optical density was measured at 405 nm in a standard Elisa reader.
For assay [2], the system named is oxazalone-sensitized T-cells. The assay can be described thus: Passively transferred delayed type hypersensitivity (DTH) with T-cells treated ex vivo. Type of assay: in vivo, mouse. The procedure:
Lymph nodes were removed from oxazalone-sensitized mice, and the T-cell suspension was exposed ex-vivo to increasing concentrations of DPAT (FIG. 9A, DPAT […]-DPAT 10^−6M) as described for FIG. 8 hereinabove. Control T-cells were incubated with medium only (untreated T-cells). The T-cells were then washed, resuspended in PBS and injected intravenously into naive syngeneic mice. The ears of the recipient mice were than challenged with oxazalone, and the degree of ear swelling was measured by micrometer 24 hr later. DTH is expressed as the mean ±SD of ear swelling in units of 10^−2 mm. […] Oxazalone-sensitized T-cells were incubated ex vivo for one hour with either DPAT (10^−8 M, +DPAT) or U-Mal (10^−7 M, +U-Mal), or both. The T-cells were then washed, resuspended in PBS, injected intravenously into normal recipients, and DTH measured as described hereinabove. […] FIGS. 9A and 9B represent two individual experiments, each experimental group consisting of 8 mice.
Passively transferred delayed type hypersenisitivity (DTH): Groups of 6-8 BALB/c female mice (The Jackson Laboratory, Bar Harbor, Mass., USA) were sensitized on the abdominal skin with 200 μt of 2% oxazalone dissolved in acetone/olive oil [4:1 vol/vol)] applied topically. Five days later, lymph nodes were removed from the sensitized mice, and a cell suspension prepared. The cells (3-5×10^6/ml in RPMI, no additional supplements) were than added for […] incubation ([…]. 37° C., 10% CO2 humidified incubator) with either DPAT, U-Mal, or both (in the latter combination the antagonist added 5 minutes before the agonist). The cells were than washed, resuspended in PBS, and injected IV (40×10^6 /mouse) into normal BALB/c recipients. Immediately afterwards the recipient mice were […] with 10 μl of 2% oxazalone in acetone/olive oil, applied topically to each side of the ear. A constant area of the ear was measured immediately before challenge and 24 hr after the challenge with a Mitutoyo engineer's micrometer. The individual measuring the ear swelling was unaware of the identity of the mice groups. The DTH reaction is expressed as the mean±SD (for each group) of the increment of ear swelling 24 hours after inoculation of the oxazalone-sensitized T-cells, in units of 10^−2 mm.

Assay [3] deals with normal human T-cells. The assay can be described thus: Membrane potential measurement by flow cytometry, human T-cells. In kind it is cell-based. The conditions noted are these: DPAT 10^−8 M. The procedure: (§1) Membrane potential measurements by flow cytometry: Purified normal human or mouse antigen-specific T-cells were incubated in serum-free medium (RPMI, ˜1×10^6/ml, 1 hr, 37° C., 10% CO2 humidified incubator) to assure steady state conditions. The cells were then washed, resuspended in normal RPMI, distributed into individual tubes (˜1×10^6/tube), added with 300 nM di-BA-C4(3) oxanol dye (Molecular Probes, Inc., Eugene, Oreg., USA), and 5-15 minutes later added with DPAT (10^−8 M). Alternatively, the human T-cells were resuspended either in normal RPMI, or in rich K^+ RPMI solutions, incubated for 30 min (37° C., 10% CO2), and loaded with 300 nM di-BA-C4(3) oxanol dye. The cell fluorescence was analyzed on the FACSORT at 488 nm.
(In general: Flow cytometry measures light scatter and fluorescence of single cells or particles in a stream.)

Assay [4] deals with resting human peripheral T-cells. The assay can be described thus: Gene expression, Atlas human cDNA expression array. In kind it is cell-based. The conditions noted are these: DPAT 10 nM, 24 hours. The procedure: Poly A+RNA was extracted from human T-lymphocytes before and after treatment with 10 nM DPAT for 24 hours, using the Atlas Pure Total RNA Labeling System (Clontech Laboratories, Inc. Palo Alto, Calif.) according to manufacturers recommendations. […] Hybridizations to the Atlas Human cDNA Expression Arrays membranes (Catalog No. 1.2 KIII (7850-1) and III (7855-1), Clontech Laboratories) were performed by Clonetech Laboratories, as described in the user manual, and the expression pattern of up and down regulated genes was visualized by autoradiography.
Poly A+ RNA was prepared from both DPAT- treated and untreated cells and reverse transcribed to ^32P-labeled cDNA. Using an Atlas human cDNA expression array (i.e. a positively charged nylon membrane spotted with 1200 different human cDNAs) for identification of effected genes, the reverse transcribed products were characterized by hybridization to the atlas membranes. The differential pattern of expression between untreated cells and DPAT-treated cells was visualized by autoradiography, and quantified by densitometry. (FIGS. 20A and 20B). […] This member of the ovalbumin family of serine protease inhibitors is expressed at elevated levels in patients with acute myeloid leukemia and chronic myelomonocytic leukemia, inhibits TNF alpha-induced cell death, and has been linked to the regulation of protease activities in early hematopoiesis (Riewald, M et al Blood 1998;91:1256-62 and Schleef R R and Chuang T L J Biol Chem 2000;275:26385-9).

Assay [5] relates to normal human T-cells. The assay can be described thus: Proliferation of resting normal human T-cells (CyQuant). In kind it is cell-based. Conditions: 48 hours. The procedure:
FIGS. 18A-C depict the proliferation of resting normal human and cultured Jurkat T-cells induced by physiological concentrations of DPAT. […] Numbers of T-cells were evaluated using the CyQuant cell proliferation assay kit (Molecular Probes), according to the manufacturer instructions. FIG. 18A represents a calibration of the CyQuant cell kit, showing the linear relationship between the fluorescent intensity and untreated human T-cell number. Note the similar maximal enhancement of T-cell proliferation with 10^−10M DPAT in purified normal human (18B) and cultured Jurkat T-cells (FIG. 18C).

Assay [6] concerns IL-10 secretion. The assay can be described thus: IL-10 secretion by human peripheral T-cells (sandwich ELISA). In kind it is cell-based. The conditions noted are these: agonist 10^−7 M, 72 hours.
Source text: The results are expressed as pg/ml IL-10. […] Immunostaining is with intracellular anti-IL-10 FITC conjugated (FL-1) and anti-CD4 PE conjugated (FL-2) antibodies, as described in Materials and Methods hereinbelow.
The results are expressed as pg/mi.
(§2) The results are expressed as pg/ml.
as §2, §2

Assay [7] has as its system Bomapin (protease inhibitor 10, PI 10). Nature of the assay: RT-PCR analysis of Bomapin mRNA in peripheral T-cells. Type of assay: cell-based, human. Conditions: DPAT 10 nM; not shown.
Assay [8] relates to mouse antigen-specific (MBP87-99) T-cells. Nature of the assay: Membrane potential measurement by flow cytometry, mouse antigen-specific T-cells. Type of assay: cell-based. The conditions noted are these: DPAT 10^−8 M; di-BA-C4(3) oxanol dye. As to the method: as §1
Assay [9] relates to SJL/J anti PLP 139-151 T-cells. The assay can be described thus: Experimental autoimmune encephalomyelitis (EAE) induced by encephalitogenic T-cells treated ex vivo. Type of assay: in vivo, mouse.

As for `CCCN(CCC)C1CCc2ccc(O)cc2C1` (stereo not drawn) [DPAT, 7-Hydroxy-DPAT], the “DPAT-treated T-cell adhesion to BSA-coated wells” value in [1] (DPAT 10 nM, BSA- instead of fibronectin-coated wells (negative control)) is given as less than 6%. The “adhesion when T-cells or fibronectin-coated wells were transiently exposed to DPAT” value in assay [1] (DPAT 10^−8 M, washed before seeding) is reported as “significant adhesion of T-cells to fibronectin was evident only if the T-cells”. Also, the “optimum concentration for induction of T-cell adhesion to fibronectin” value in assay [1] (dose dependence, human T-cells) amounted to 10 nM. Moreover, the “DTH (ear swelling) caused by oxazalone-sensitized T-cells” value in [2] (DPAT 10^−8 M ex vivo, 1 hr, ear swelling 24 hr after challenge) is listed as “significantly reduced”. Also, the “DTH suppression at higher and lower concentrations” value in assay [2] (DPAT concentrations other than 10^−8 M) was “either less or not at all effective”. Besides, the “reduction of DTH” value in [2] (DPAT ex vivo, ear swelling 24 hr after challenge) is more than 60%. In [3], the “level of depolarization, comparable extracellular K^+ concentration” value is recorded as approximately 20 mM. The “depolarization of normal human T-cells” value in [3] (di-BA-C4(3) oxanol dye) is on record as “clear depolarization”. For the same compound, the “shift of membrane potential” value in [3] (from a resting potential of ˜48 mV) is approximately 6 mV. Moreover, in assay [4], the “down-regulation of gene expression” value is given as “down-regulated the expression of others”; the “expression of Lupus LA protein and Cathepsin E precursor” value was “induced expression of Lupus LA protein and Cathepsin E precursor”; the “expression of the serine protease inhibitor Bomapin” value is listed as “induction of expression”; the “over expression of mRNA (upregulated genes)” value was “induced the over expression of mRNA encoding for several genes”. The “DPAT concentration of maximal enhancement of proliferation, normal human T-cells” value in assay [5] was 10^−10 M. For the same compound, in [5] (DPAT 10^−8 M to 10^−10 M), the “proliferation of normal human T-cells relative to untreated cells” value is “up to 5 times that of untreated cells”. Also, the “induction of IL-10 secretion by receptor-specific Dopamine agonists” value in assay [6] was “induced by the D2 and D3”. The “abundance of Bomapin transcripts” value in assay [7] was “increased abundance of Bomapin transcripts”. The “depolarization of mouse antigen specific T-cells” value in assay [8] was “clear depolarization”. Further, the “severity of EAE in recipient mice” value in [9] (T-cells incubated 1 hour with DPAT 10^−8 M ex vivo, IV into naive SJL/J mice, documented 5-12 days later) is “significantly reduced the severity”. Moreover, in [9] (mice injected with DPAT-treated T-cells, four independent experiments), the “percentage of mice developing EAE, individual experiments” value was 83% and 60% (2×) and 80%. The “percentage of mice developing EAE, mean of four experiments” value in assay [9] (mice injected with DPAT-treated T-cells, p<0.01 vs untreated T-cells) was found to be 70%.
